Experiments:
[1] = target: T1, His-tagged tau / biotinylated heparin interaction (Homo sapiens, UniProt P10636); experiment: Bead-based ALPHA assay screening for inhibitors of tau-heparin interaction; assay type: binding
T1 construct: recombinant full-length tau (2N4R, as 1-441); made in house; host or cells: E. coli BL21-DE3
From the text: In some embodiments, the detecting portion 161 is configured to measure a fluorescent emission 164 when the at least one donor bead 110 and the at least one acceptor bead 120 are brought in proximity of one another. In some embodiments, the emitting portion 163 configured to emit a beam of light 162 at a specific wavelength onto the at least one donor bead 110. In some embodiments, the at least one donor bead 110 becomes excited at the specific wavelength, which results in a light emission by the at least one acceptor bead 120. […] In some embodiments, the ability and effectiveness of the screening molecule 150 to inhibit protein-glycan interactions is determined based on the strength of the emission 164, where inhibitors decrease the strength of the emission 164. […] In some embodiments, the user interface outputs information related to the emission 164 detected by the detecting portion 161.
At 214, the results are determined, meaning that whether or not the screening compound disrupts interactions at the protein-glycan interface is determined. In some embodiments, in the case of the screening molecule 150 being determined to disrupt interactions at the protein-glycan interface, the relative strength of the disruption may also be determined. […]

tau = target: T2, tau (Homo sapiens, UniProt P10636); experiment: Heparin-induced tau aggregation; assay type: biochemical
T2 construct: recombinant full-length tau (2N4R, as 1-441); made in house; host or cells: E. coli BL21-DE3
From the text: (§1) Referring to FIG. 3B, in some embodiments, the screening compound 150 comprises 9-hydroxy-2-(2-piperidinylethyl) ellipticinium acetate or 6H-Pyrido [4, 9-hydroxy-5,11-dimethyl-2-[2-(1-piperidinyl)ethyl]-, acetate (A9) 300. […] A9 300 may comprise a chemical formula of C24H28N3O·C2H3O2 and a molecular weight of 434.0 g/mol. Additional analysis of A9 300 was done by performing a cell uptake assay utilizing H4 neuroglioma cells. […] In some embodiments, A9 300 is effective to disrupt tau-heparin interaction when present in a higher concentration than the concentration of tau. In some embodiments, A9 300 is effective when present in about a 100-fold molar excess relative to the tau-heparin complex.

[2] = tested on: tau uptake in H4 neuroglioma cells; experiment: Cell uptake assay utilizing H4 neuroglioma cells; assay type: cell-based
From the text: as §1

[3] = target: T3, tau-HS interaction (heparin) (Homo sapiens, UniProt P10636); experiment: NMR probing of the tau-A9 interface; assay type: binding
T3 construct: recombinant full-length tau (2N4R, as 1-441); made in house; host or cells: E. coli BL21-DE3
T3 sequence (P10636 1-441 isoform P10636-8): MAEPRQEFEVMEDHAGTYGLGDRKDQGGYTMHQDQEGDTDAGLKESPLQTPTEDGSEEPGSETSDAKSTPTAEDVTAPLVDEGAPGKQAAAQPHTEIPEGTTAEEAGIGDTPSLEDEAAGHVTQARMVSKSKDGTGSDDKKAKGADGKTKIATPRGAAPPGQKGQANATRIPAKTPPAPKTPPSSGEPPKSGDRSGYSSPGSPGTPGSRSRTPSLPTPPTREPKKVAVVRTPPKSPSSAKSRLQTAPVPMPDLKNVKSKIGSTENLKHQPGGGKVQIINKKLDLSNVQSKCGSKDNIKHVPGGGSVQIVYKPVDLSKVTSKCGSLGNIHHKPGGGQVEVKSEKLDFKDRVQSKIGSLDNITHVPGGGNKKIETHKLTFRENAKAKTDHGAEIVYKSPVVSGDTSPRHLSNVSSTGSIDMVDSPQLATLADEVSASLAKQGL

T1 sequence (P10636 1-441 isoform P10636-8): as above
T2 sequence (P10636 1-441 isoform P10636-8): as above

## CC(=O)[O-].Cc1c2cc[n+](CCN3CCCCC3)cc2c(C)c2c1[nH]c1ccc(O)cc12 [A9, 9-hydroxy-2-(2-piperidinylethyl) ellipticinium acetate]
[1]; 0.1 μM His-tau, 0.1 μM biotinylated heparin, 1 h room temperature, excitation 680 nm, emission 620 nm, lower signal = stronger inhibition
  detected fluorescent signal in screen of NCI diversity Set VI: lowest detected fluorescent signal
[1]; varying compound concentrations
  protein-glycan inhibition, dose-dependent follow-up, ranking among the six hits: greatest protein-glycan inhibition
tau
  inhibition of heparin-induced tau aggregation: inhibit heparin-induced tau aggregation in a dose-dependent manner
[2]
  inhibition of tau uptake: inhibited tau uptake in a dose-dependent manner
[3]; NMR
  mechanism of disruption of tau-HS interaction: disrupt the tau-HS interaction by occupying the glycan
[3]; further analysis
  region of compound that binds heparin: aromatic region binds to heparin instead of its aliphatic carbons

From US20250189533A1, “BEAD-BASED ASSAY TO SCREEN FOR INHIBITOR PROTEIN-GLYCAN INTERACTIONS IN NEURODEGENERATION” (Rensselaer Polytechnic Institute, priority 2023, published 2025)
